Laboratory results published in the supplement of paper PMC11208160.

Experiment: recombinant UMI read abundance after kanamycin selection (control-corrected) (log10(CPM+1)); higher = more efficient recombination; extreme values may be limits of the assay; sequences stand for … in AGTGCAGAGAAAATCGGCCAGTTTTCTCTGCCTGCAGTCCGCATGCCGTGGGACCCCTTGGGTTCTAACCTGTTGCCTAGATTTATGCAGCGGACTGCCTTTCTCCCAAAGTGATAAACCGG…AGGTTGGTTTCACT; site = the 11-nt donor
Summary of the method: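 Sequenced counts of recombinant UMIs were turned into CPM, averaged across replicates and scaled with control-derived factors. The reported figure is log10(CPM+1). Those UMIs, each 12 nt long, tagged donor and donor-binding-loop pairs on a plasmid with a promoterless kanamycin gene, screened as a pool in Escherichia coli with IPTG (0.07 mM) plus kanamycin or without selection.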
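Also: IS621 bridge recombinase in Escherichia coli cells against a fixed T5 target plasmid.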

Sequence	recombinant UMI read abundance (log10)
CGATCGACATGGACCGGTTTTCCCGGTAATCCGTATTTGGT (site CGATCGACTAA)	0.276
CGATCGACATGGACCGGTTTTCCCGGTAATCCGTATTTGGT (site CGATCGACTAC)	0.733
CGATCGACATGGACCGGTTTTCCCGGTAATCCGTATTTGGT (site CGATCGACTAG)	0
CGATCGACATGGACCGGTTTTCCCGGTAATCCGTATTTGGT (site CGATCGACTAT)	1.46
CGATCGACATGGACCGGTTTTCCCGGTAATCCGTATTTGTA (site CGATCGACTAA)	0
CGATCGACATGGACCGGTTTTCCCGGTAATCCGTATTTGTA (site CGATCGACTCA)	0.0107
CGATCGACATGGACCGGTTTTCCCGGTAATCCGTATTTGTA (site CGATCGACTGA)	0
CGATCGACATGGACCGGTTTTCCCGGTAATCCGTATTTGTA (site CGATCGACTTA)	1.19
CGATCGTCATGGACCGGTTTTCCCGGTAATCCGTATTTGAT (site CGATCATCTAG)	0.00648
CGATCGTCATGGACCGGTTTTCCCGGTAATCCGTATTTGAT (site CGATCGTCTAT)	0.972
CGATGATCATGGACCGGTTTTCCCGGTAATCCGTATTTGAG (site CGATGATCTCT)	3.16
CGATGATCATGGACCGGTTTTCCCGGTAATCCGTATTTGCC (site CGATCATCTAG)	0
CGATGATCATGGACCGGTTTTCCCGGTAATCCGTATTTGCC (site CGATGATCTGG)	2
CGATGCGCATGGACCGGTTTTCCCGGTAATCCGTATTTGAT (site CGATGCGCTAT)	2.43
CGATGCTCATGGACCGGTTTTCCCGGTAATCCGTATTTGAA (site CAATGCTCTTT)	0.249
CGATGCTCATGGACCGGTTTTCCCGGTAATCCGTATTTGAA (site CCATGCTCTTT)	0.00345
CGATGCTCATGGACCGGTTTTCCCGGTAATCCGTATTTGAA (site CGATGCTCTTT)	2.6
CGATGCTCATGGACCGGTTTTCCCGGTAATCCGTATTTGAA (site CTATGCTCTTT)	0.0185
CGATGTCCATGGACCGGTTTTCCCGGTAATCCGTATTTGGA (site CGATGTCCTTC)	0.0178
CGATTCGCATGGACCGGTTTTCCCGGTAATCCGTATTTGCT (site CGATTCGCTAG)	2.12
CGATTGACATGGACCGGTTTTCCCGGTAATCCGTATTTGTT (site CGATAGACTAA)	0.0285
CGATTGACATGGACCGGTTTTCCCGGTAATCCGTATTTGTT (site CGATCGACTAA)	0.016
CGATTGACATGGACCGGTTTTCCCGGTAATCCGTATTTGTT (site CGATGGACTAA)	0.00746

Sequence	recombinant UMI read abundance (log10)
CGATTGACATGGACCGGTTTTCCCGGTAATCCGTATTTGTT (site CGATTGACTAA)	1.24
CGATTTTCATGGACCGGTTTTCCCGGTAATCCGTATTTGCT (site CGATCATCTAG)	0
CGATTTTCATGGACCGGTTTTCCCGGTAATCCGTATTTGCT (site CGATTTTCTAG)	1.29
CGCAAGACATGGACCGGTTTTCCCGGTAATCCGTATTTGCA (site CGCAAGACTTG)	1.79
CGCAATACATGGACCGGTTTTCCCGGTAATCCGTATTTGGT (site CGCAATACTAC)	1.25
CGCAATCCATGGACCGGTTTTCCCGGTAATCCGTATTTGTT (site CGAAATCCTAA)	0.00301
CGCAATCCATGGACCGGTTTTCCCGGTAATCCGTATTTGTT (site CGCAATCCTAA)	0.698
CGCAATCCATGGACCGGTTTTCCCGGTAATCCGTATTTGTT (site CGGAATCCTAA)	0
CGCAATCCATGGACCGGTTTTCCCGGTAATCCGTATTTGTT (site CGTAATCCTAA)	0
CGCACCCCATGGACCGGTTTTCCCGGTAATCCGTATTTGAC (site CGCACCCCTGT)	1.43
CGCACGACATGGACCGGTTTTCCCGGTAATCCGTATTTGCC (site CGCACGACTGG)	1.95
CGCAGAACATGGACCGGTTTTCCCGGTAATCCGTATTTGCA (site CGCAGAACTTG)	1.37
CGCAGAACATGGACCGGTTTTCCCGGTAATCCGTATTTGTA (site CGCAGAACTTA)	2.19
CGCATCCCATGGACCGGTTTTCCCGGTAATCCGTATTTGGC (site CGCATCCCTGC)	1.75
CGCATTTCATGGACCGGTTTTCCCGGTAATCCGTATTTGCC (site CGCATTTCTGG)	0
CGCCACCCATGGACCGGTTTTCCCGGTAATCCGTATTTGTT (site AGCCACCCTAA)	0.00879
CGCCACCCATGGACCGGTTTTCCCGGTAATCCGTATTTGTT (site CGCCACCCTAA)	0.0407
CGCCACCCATGGACCGGTTTTCCCGGTAATCCGTATTTGTT (site GGCCACCCTAA)	0.0241
CGCCACCCATGGACCGGTTTTCCCGGTAATCCGTATTTGTT (site TGCCACCCTAA)	0.00618
CGCCAGACATGGACCGGTTTTCCCGGTAATCCGTATTTGCC (site CGCCAGACTGG)	1.38
CGCCATCCATGGACCGGTTTTCCCGGTAATCCGTATTTGTT (site CGCCATCCTAA)	0.44
CGCCATCCATGGACCGGTTTTCCCGGTAATCCGTATTTGTT (site CGGAATCCTAA)	0
CGCCATGCATGGACCGGTTTTCCCGGTAATCCGTATTTGAC (site CGCCATGCTGT)	1.6

Sequence	recombinant UMI read abundance (log10)
CGCCGTACATGGACCGGTTTTCCCGGTAATCCGTATTTGCA (site CGCCGTACTAG)	0.00535
CGCCGTACATGGACCGGTTTTCCCGGTAATCCGTATTTGCA (site CGCCGTACTCG)	0.013
CGCCGTACATGGACCGGTTTTCCCGGTAATCCGTATTTGCA (site CGCCGTACTGG)	0.685
CGCCGTACATGGACCGGTTTTCCCGGTAATCCGTATTTGCA (site CGCCGTACTTG)	2.07
CGCCGTACATGGACCGGTTTTCCCGGTAATCCGTATTTGGT (site CGCCGTACTAA)	0.0124
CGCCGTACATGGACCGGTTTTCCCGGTAATCCGTATTTGGT (site CGCCGTACTAC)	0.57
CGCCGTACATGGACCGGTTTTCCCGGTAATCCGTATTTGGT (site CGCCGTACTAG)	0
CGCCGTACATGGACCGGTTTTCCCGGTAATCCGTATTTGGT (site CGCCGTACTAT)	0.321
CGCCTGTCATGGACCGGTTTTCCCGGTAATCCGTATTTGTT (site CGCCTGTCTAA)	0.902
CGCCTTCCATGGACCGGTTTTCCCGGTAATCCGTATTTGGT (site CGCCTTCCTAC)	0.0121
CGCGGAACATGGACCGGTTTTCCCGGTAATCCGTATTTGTT (site CGAGGAACTAA)	0.0752
CGCGGAACATGGACCGGTTTTCCCGGTAATCCGTATTTGTT (site CGCGGAACTAA)	2.39
CGCGGAACATGGACCGGTTTTCCCGGTAATCCGTATTTGTT (site CGGGGAACTAA)	0.0138
CGCGGAACATGGACCGGTTTTCCCGGTAATCCGTATTTGTT (site CGTGGAACTAA)	0.00441
CGCGGAGCATGGACCGGTTTTCCCGGTAATCCGTATTTGGC (site CGCGGAGCTGC)	0.884
CGCGGAGCATGGACCGGTTTTCCCGGTAATCCGTATTTGGT (site CGCGGAGCTAC)	1.14
CGCGTTCCATGGACCGGTTTTCCCGGTAATCCGTATTTGGA (site CGCGTTCCTTC)	0
CGCTCCTCATGGACCGGTTTTCCCGGTAATCCGTATTTGCT (site CGATCATCTAG)	0
CGCTCCTCATGGACCGGTTTTCCCGGTAATCCGTATTTGCT (site CGCTCCTCTAG)	3.07
CGCTCCTCATGGACCGGTTTTCCCGGTAATCCGTATTTGTG (site CGCTCCTCTCA)	0.976
CGCTTAGCATGGACCGGTTTTCCCGGTAATCCGTATTTGTA (site CGCTTAGCTTA)	1.88
CGCTTTCCATGGACCGGTTTTCCCGGTAATCCGTATTTGGT (site CGCTTTCCTAC)	0
